Results taken from patent US20250288704A1, “CXCR4-LIGANDS FOR DIAGNOSTIC AND THERAPEUTIC USE AND PRECURSORS THEREOF” (priority 2021, published 2025).
Where two headings read alike, the source gives them in different places. Blank lines part the entries; values can stand above or below the molecule they belong to. Positions of bridges follow the written chain, without caps; N, C: chain ends. Non-standard residues stand in square brackets, D forms with d. Residues, ends and D or L forms follow the SMILES beside them. Groups on a side chain read outwards from the residue. Chains are numbered I, II in the order given. *: point of attachment. DOTA = O=C(O)CN1CCN(CC(=O)O)CCN(CC(=O)*)CCN(CC(=O)O)CC1; dTyr(3-I) = N[C@H](Cc1ccc(O)c(I)c1)C(=O)O; 2Nal = N[C@@H](Cc1ccc2ccccc2c1)C(=O)O; dCit = NC(=O)NCCC[C@@H](N)C(=O)O; dNMeOrn = CN[C@H](CCCN)C(=O)O; 4Amb = NCc1ccc(C(=O)O)cc1; Mercaptoacetyl = O=C(CS)*; 4Abz = Nc1ccc(C(=O)O)cc1; dDap = NC[C@@H](N)C(=O)O

Legend:
CXCR4 = CXCR4 (Homo sapiens, UniProt P61073); test: Determination of IC50: competition with 125I-Fc-131 on CXCR4-positive Jurkat cells; format: binding; design: CXCR4-positive Jurkat T lymphocyte cells were grown in Gibco's RPMI 1640 GlutaMAX medium; endogenous in cells; host or cells: Jurkat T lymphocyte cells (whole cells in suspension, 400.000 per tube);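 note: test compound at 10^−5 to 10^−11 M competed for 2 h at 8 °C with the radioligand on 400,000 cells per well, bound versus free activity measured by γ-counting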
[1] = system: CXCR4-expressing Chem_1 cells; test: Determination of internalization, dual tracer with 125I-Fc-131; format: cell-based; settings: for Cell-bound [%] / Internalized [%]: of total cellular activity; for Internalization [% Fc-131] 2 h: 177Lu-labeled
Procedure: CXCR4-expressing Chem_1 cells were grown in DMEM-F12 medium supplemented with 10 vol % FBS, 1 vol % NEA, 1 vol % PenStrep and 1 vol % HEPES (1.00 M). Cells were maintained in a 5% CO2 atmosphere at 37° C.
For in vitro experiments, cells were harvested by removal of the medium and incubation of the cells with trypsine/EDTA (0.05%/0.02%; w/v) for 30 in at 37° C.
Each well (n=3 for every time point) was either treated with 25 μL DMEM-F12 (+5 wt % BSA) or 25 μL of an AMD3100 stock (1 mM in H2O) for blockage of the receptors.
The experiment was stopped by placing the well-plate on ice and removing the supernatant. The cells were washed with 250 μL cold HBSS and the both fractions for each well combined, comprising the amount of unbound radioligand.
The supernatant was removed, the cells washed with cold HBSS and the respective fractions combined to obtain the amount of surface-bound radioligand.
The cells were then incubated with 300 μL NaOH (1.00 M in H2O) for at least 30 at r.t. before the supernatant was removed. The well was washed with another 300 μL NaOH and the fractions combined that contain the amount of internalized radioligand.
The three different fractions were subjected to activity measurement in the γ-counter, measuring the activity of the radionuclide used for the labeling of the peptide under investigation first. […] Data was corrected for non-specific internalization and referred to the specific internalization of the standard ligand

[2] = Octanol/PBS partition coefficient (logD7.4); format: physicochemical; settings: n-octanol/PBS pH 7.4, radiolabeled compound
Procedure: The tubes were vortexed at maximum speed for 3 min to ensure equilibrium before centrifugation at 15.000×g for 5 min on a Biofuge 15 from Heraeus Holding GmbH (Osterode, Germany). An aliquot of 100 μL of each fraction was measured in the γ-counter and the log D7.4 calculated as follows: […]

[3] = unlabeled or cold (natGa/natLu) compound vs 125I-Fc-131, Jurkat cells, read-out: IC50

Sequence of CXCR4 (P61073 whole entry): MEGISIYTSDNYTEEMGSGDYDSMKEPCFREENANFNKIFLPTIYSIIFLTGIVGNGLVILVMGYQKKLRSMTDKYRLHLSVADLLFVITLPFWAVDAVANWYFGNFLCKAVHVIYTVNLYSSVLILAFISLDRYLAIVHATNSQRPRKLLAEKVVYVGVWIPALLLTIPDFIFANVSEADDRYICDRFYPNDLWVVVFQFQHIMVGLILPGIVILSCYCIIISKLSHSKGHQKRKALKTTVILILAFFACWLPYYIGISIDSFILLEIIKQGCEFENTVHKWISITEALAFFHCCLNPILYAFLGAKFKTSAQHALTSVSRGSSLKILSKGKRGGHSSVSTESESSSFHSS

IC50 (CXCR4; [3]): 2.95 ± 0.59 nM
Compound: C[C@@H](NC(=O)[C@@H](CCCNC(=N)N)NC(=O)[C@@H](CN)NC(=O)CN1CCN(CC(=O)O)CCN(CC(=O)O)CCN(CC(=O)O)CC1)C(=O)NCc1ccc(C(=O)NCCC[C@@H]2C(=O)N[C@@H](CCCNC(=N)N)C(=O)N[C@@H](Cc3ccc4ccccc4c3)C(=O)NCC(=O)N[C@H](Cc3ccc(O)cc3)C(=O)N2C)cc1 [CXCR4-DOTA-1 [Ga]] (cyclo([dY][dNMeOrn]([4Amb-dA-dR-dDap-DOTA])R[2Nal]G))

Compound: C[C@@H](NC(=O)[C@@H](CCCNC(=N)N)NC(=O)[C@@H](CN)NC(=O)CN1CCN(CC(=O)O)CCN(CC(=O)O)CCN(CC(=O)O)CC1)C(=O)Nc1ccc(C(=O)NCCC[C@@H]2C(=O)N[C@@H](CCCNC(=N)N)C(=O)N[C@@H](Cc3ccc4ccccc4c3)C(=O)NCC(=O)N[C@H](Cc3ccc(O)c(I)c3)C(=O)N2C)cc1 [CXCR4-DOTA-4] (cyclo([dTyr(3-I)][dNMeOrn]([4Abz-dA-dR-dDap-DOTA])R[2Nal]G))
IC50 (CXCR4; [3]): 4.64 ± 0.96 nM

Compound: C[C@@H](NC(=O)[C@@H](CCCNC(=N)N)NC(=O)[C@@H](CCCNC(=N)N)NC(=O)[C@@H](CO)NC(=O)[C@@H](CO)NC(=O)[C@@H](CO)NC(=O)CS)C(=O)Nc1ccc(C(=O)NCCC[C@@H]2C(=O)N[C@@H](CCCNC(=N)N)C(=O)N[C@@H](Cc3ccc4ccccc4c3)C(=O)NCC(=O)N[C@H](Cc3ccc(O)cc3)C(=O)N2C)cc1 [Tc-CXCR4-3] (I: Mercaptoacetyl-[dS][dS][dS][dR][dR][dA][4Abz] / II: cyclo([dY][dNMeOrn]R[2Nal]G); amide I:C-II:2)
IC50 (CXCR4): 184 ± 25.3 nM

Compound: C[C@@H](NC(=O)[C@@H](CCCNC(=N)N)NC(=O)[C@@H](CN)NC(=O)CN1CCN(CC(=O)O)CCN(CC(=O)O)CCN(CC(=O)O)CC1)C(=O)Nc1ccc(C(=O)NCCC[C@@H]2C(=O)N[C@@H](CCCNC(=N)N)C(=O)N[C@@H](Cc3ccc4ccccc4c3)C(=O)NCC(=O)N[C@H](Cc3ccc(O)c(I)c3)C(=O)N2C)cc1 [CXCR4-DOTA-4 [Lu]] (cyclo([dTyr(3-I)][dNMeOrn]([4Abz-dA-dR-dDap-DOTA])R[2Nal]G))
Internalized in relation to 125I-Fc-131 [%] ([1]; 15 min): 381 ± 16.2%
Cell-bound [%] ([1]; 15 min): 16.0 ± 0.58%
Internalized [%] ([1]; 15 min): 20.7 ± 0.59%
Internalized in relation to 125I-Fc-131 [%] ([1]; 30 min): 588 ± 34.1%
Cell-bound [%] ([1]; 30 min): 24.6 ± 1.38%
Internalized [%] ([1]; 30 min): 30.6 ± 1.56%
Internalized in relation to 125I-Fc-131 [%] ([1]; 60 min): 685 ± 50.1%
Cell-bound [%] ([1]; 60 min): 32.4 ± 0.60%
Internalized [%] ([1]; 60 min): 39.3 ± 0.52%
Internalized in relation to 125I-Fc-131 [%] ([1]; 120 min): 675 ± 47.4%
Internalization [% Fc-131] 2 h [1]: 675 % Fc-131
Cell-bound [%] ([1]; 120 min): 37.2 ± 2.16%
Internalized [%] ([1]; 120 min): 53.23 ± 1.06%
logD7.4 [2]: −2.89 ± 0.10 (6)

Compound: C[C@@H](NC(=O)[C@@H](CCCNC(=N)N)NC(=O)[C@@H](C)NC(=O)[C@@H](CO)NC(=O)[C@@H](CO)NC(=O)[C@@H](CO)NC(=O)CS)C(=O)Nc1ccc(C(=O)NCCC[C@@H]2C(=O)N[C@@H](CCCNC(=N)N)C(=O)N[C@@H](Cc3ccc4ccccc4c3)C(=O)NCC(=O)N[C@H](Cc3ccc(O)cc3)C(=O)N2C)cc1 [Tc-CXCR4-2] (I: Mercaptoacetyl-[dS][dS][dS][dA][dR][dA][4Abz] / II: cyclo([dY][dNMeOrn]R[2Nal]G); amide I:C-II:2)
IC50 (CXCR4): 32.4 ± 9.9 nM

Compound: C[C@@H](NC(=O)[C@@H](CCCNC(=N)N)NC(=O)[C@@H](Cc1c[nH]cn1)NC(=O)[C@@H](CNC(=O)c1ccc([Si](F)(C(C)(C)C)C(C)(C)C)cc1)NC(=O)CC[C@H](C(=O)O)N1CCN(CC(=O)O)CCN(CC(=O)O)CCN(CC(=O)O)CC1)C(=O)Nc1ccc(C(=O)NCCC[C@@H]2C(=O)N[C@@H](CCCNC(=N)N)C(=O)N[C@@H](Cc3ccc4ccccc4c3)C(=O)NCC(=O)N[C@H](Cc3ccc(O)cc3)C(=O)N2C)cc1 [CXCR4-SiFA-2 [Ga]]
Internalized in relation to 125I-Fc-131 [%] ([1]; 30 min): 500 ± 23.1%
Cell-bound [%] ([1]; 30 min): 0.08 ± 0.23%
Internalized [%] ([1]; 30 min): 12.5 ± 0.46%
Internalization [% Fc-131] ([1]; 90 min): 562 % Fc-131
Internalized in relation to 125I-Fc-131 [%] ([1]; 90 min): 562 ± 33.0%
Cell-bound [%] ([1]; 90 min): 0.43 ± 0.26%
Internalized [%] ([1]; 90 min): 16.5 ± 0.94%
logD7.4 [2]: 0.39 ± 0.07 (8)

Compound: C[C@@H](NC(=O)[C@@H](CCCNC(N)=O)NC(=O)[C@@H](CN)NC(=O)CN1CCN(CC(=O)O)CCN(CC(=O)O)CCN(CC(=O)O)CC1)C(=O)Nc1ccc(C(=O)NCCC[C@@H]2C(=O)N[C@@H](CCCNC(=N)N)C(=O)N[C@@H](Cc3ccc4ccccc4c3)C(=O)NCC(=O)N[C@H](Cc3ccc(O)cc3)C(=O)N2C)cc1 [CXCR4-DOTA-5 [Lu]] (cyclo([dY][dNMeOrn]([4Abz-dA-dCit-dDap-DOTA])R[2Nal]G))
Internalized in relation to 125I-Fc-131 [%] ([1]; 15 min): 97.3 ± 8.78%
Cell-bound [%] ([1]; 15 min): 3.47 ± 0.46%
Internalized [%] ([1]; 15 min): 3.52 ± 0.31%
Internalized in relation to 125I-Fc-131 [%] ([1]; 30 min): 151 ± 4.51%
Cell-bound [%] ([1]; 30 min): 4.66 ± 0.45%
Internalized [%] ([1]; 30 min): 5.80 ± 0.14%
Internalized in relation to 125I-Fc-131 [%] ([1]; 60 min): 151 ± 15.9%
Cell-bound [%] ([1]; 60 min): 5.21 ± 0.48%
Internalized [%] ([1]; 60 min): 6.94 ± 0.59%
Internalized in relation to 125I-Fc-131 [%] ([1]; 120 min): 190 ± 13.0%
Internalization [% Fc-131] 2 h [1]: 190 % Fc-131
Cell-bound [%] ([1]; 120 min): 3.94 ± 0.45%
Internalized [%] ([1]; 120 min): 9.65 ± 0.16%
logD7.4 [2]: −3.58 ± 0.08 (8)
